Measurements from BigSolDB 2.1.

CCCCCCCCCCCCCCCCCC(=O)OCCO
Settings	solubility (mole fraction)
in 1,1,1-trichloroethane, 287.65 K	0.0097
in 1,1,1-trichloroethane, 290.45 K	0.0147
in 1,1,1-trichloroethane, 293.65 K	0.0227
in 1,1,1-trichloroethane, 295.75 K	0.0339
in 1,1,1-trichloroethane, 298.55 K	0.0504
in 1,1,1-trichloroethane, 300.95 K	0.0723
in 1,1,1-trichloroethane, 304.25 K	0.108
in 1,1,1-trichloroethane, 307.75 K	0.164
in 1,1,1-trichloroethane, 311.65 K	0.239
in 1,1,1-trichloroethane, 314.45 K	0.348
in 1,1,2-trichlorotrifluoroethane, 290.45 K	0.0013
in 1,1,2-trichlorotrifluoroethane, 295.55 K	0.0029
in 1,1,2-trichlorotrifluoroethane, 303.45 K	0.0077
in 1,1,2-trichlorotrifluoroethane, 303.65 K	0.0087
in 1,1,2-trichlorotrifluoroethane, 306.05 K	0.0124
in 1,1,2-trichlorotrifluoroethane, 308.05 K	0.0192
in 1,1,2-trichlorotrifluoroethane, 309.85 K	0.0307
in 1,1,2-trichlorotrifluoroethane, 311.45 K	0.049
in 1,1,2-trichlorotrifluoroethane, 312.65 K	0.0769
in 1,1,2-trichlorotrifluoroethane, 314.15 K	0.128
in 1,1,2-trichlorotrifluoroethane, 316.75 K	0.276
in cyclohexane, 282.05 K	0.0007
in cyclohexane, 288.35 K	0.0015
in cyclohexane, 294.65 K	0.0033
in cyclohexane, 298.15 K	0.0067
in cyclohexane, 299.15 K	0.0088
in cyclohexane, 300.25 K	0.0128
in cyclohexane, 300.85 K	0.0135
in cyclohexane, 302.25 K	0.0199
in cyclohexane, 303.85 K	0.314
in cyclohexane, 305.45 K	0.0499
in cyclohexane, 307.15 K	0.0774
in cyclohexane, 309.35 K	0.129
in cyclohexane, 312.46 K	0.208
in cyclohexane, 315.56 K	0.303
in ethyl acetate, 297.45 K	0.0118
in ethyl acetate, 298.35 K	0.016
in ethyl acetate, 299.15 K	0.0204
in ethyl acetate, 299.75 K	0.0248
in ethyl acetate, 300.95 K	0.0332
in ethyl acetate, 302.15 K	0.0433
in ethyl acetate, 305.05 K	0.065
in ethyl acetate, 306.05 K	0.0868
in ethyl acetate, 308.75 K	0.125
in ethyl acetate, 312.75 K	0.233
in n-butyl acetate, 294.45 K	0.0094
in n-butyl acetate, 295.35 K	0.0174
in n-butyl acetate, 297.45 K	0.0304
in n-butyl acetate, 298.65 K	0.0507
in n-butyl acetate, 302.65 K	0.0761
in n-butyl acetate, 306.75 K	0.129
in n-butyl acetate, 313.15 K	0.267
in n-hexyl acetate, 293.95 K	0.0267
in n-hexyl acetate, 299.35 K	0.0423
in n-hexyl acetate, 302.35 K	0.0633
in n-hexyl acetate, 305.95 K	0.0919
in n-hexyl acetate, 308.15 K	0.128
in n-hexyl acetate, 309.75 K	0.158
in n-hexyl acetate, 311.65 K	0.202
in n-hexyl acetate, 313.73 K	0.256
in n-hexyl acetate, 317.15 K	0.339
in n-hexyl acetate, 320.05 K	0.464
in n-hexyl acetate, 332.85 K	0.631
in n-pentyl acetate, 294.95 K	0.0324
in n-pentyl acetate, 298.95 K	0.0453
in n-pentyl acetate, 300.85 K	0.168
in n-pentyl acetate, 301.75 K	0.0655
in n-pentyl acetate, 303.75 K	0.0897
in n-pentyl acetate, 305.75 K	0.121
in n-pentyl acetate, 311.95 K	0.232
in n-pentyl acetate, 314.95 K	0.316
in n-pentyl acetate, 318.45 K	0.447
in n-pentyl acetate, 322.85 K	0.657
in n-propyl acetate, 297.75 K	0.0357
in n-propyl acetate, 299.95 K	0.0493
in n-propyl acetate, 302.15 K	0.0655
in n-propyl acetate, 304.35 K	0.0992
in n-propyl acetate, 306.45 K	0.137
in n-propyl acetate, 308.75 K	0.174
in n-propyl acetate, 311.85 K	0.228
in n-propyl acetate, 314.95 K	0.315
in n-propyl acetate, 317.85 K	0.405
in n-propyl acetate, 322.15 K	0.566
